These results are taken from ChEMBL document CHEMBL1201862, “PubChem BioAssay data set” (2004).

One assay concerns HEK293. The assay is described as follows: cells. Format: functional, cell-based. To be noted: Homo sapiens.
Assay [1] deals with T1, Nuclear receptor subfamily 0 group B member 1 (Homo sapiens, UniProt P51843).
T1 sequence (P51843 whole entry): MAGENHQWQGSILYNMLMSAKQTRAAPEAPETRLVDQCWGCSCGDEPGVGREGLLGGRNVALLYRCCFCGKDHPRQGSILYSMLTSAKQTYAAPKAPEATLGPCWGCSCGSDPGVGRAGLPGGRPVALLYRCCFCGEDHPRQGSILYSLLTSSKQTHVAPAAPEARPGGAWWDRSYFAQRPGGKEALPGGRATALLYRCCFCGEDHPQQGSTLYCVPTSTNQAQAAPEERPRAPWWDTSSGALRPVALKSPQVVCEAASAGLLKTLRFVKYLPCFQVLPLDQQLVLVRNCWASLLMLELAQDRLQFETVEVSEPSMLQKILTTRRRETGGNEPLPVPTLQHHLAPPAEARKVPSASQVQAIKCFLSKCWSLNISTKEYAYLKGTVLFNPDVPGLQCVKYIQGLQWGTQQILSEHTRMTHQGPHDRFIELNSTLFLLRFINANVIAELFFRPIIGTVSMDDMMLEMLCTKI
The assay is described as follows: Luminescence-based cell-based high throughput dose response assay for inhibitors of the orphan nuclear receptor subfamily 0, group B, member 1 (DAX1; NR0B1). [Related pubchem assays (depositor defined):AID504766, AID504790]. In kind it is functional.

Assay [2] has as its system BJ. The assay is described as follows: cytotoxicity toward BJ-TERT fibroblasts, dose response, cell-based, RAS-independent, luminescence (AID 1933). Format: functional. To be noted: Homo sapiens.
For assay [3], the system named is BJ. The assay is described as follows: cells. To be noted: Homo sapiens. In kind it is functional, cell-based.
For assay [4], the system named is BJ. The assay is described as follows: cytotoxicity toward BJ-TERT-LT-ST fibroblasts, dose response, cell-based, RAS-independent, luminescence (AID 1935).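 Also: BJ fibroblasts immortalized with TERT plus LT and ST oncogenes.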 Format: functional. To be noted: Homo sapiens.
The nature of assay [5]: cytotoxicity toward DRD oncogenic fibroblasts, dose response, cell-based, non-viral oncogenic, luminescence (AID 1934). To be noted: Homo sapiens. In kind it is functional.
The test system of assay [6] is BJ. The assay is described as follows: cytotoxicity toward Ras-transformed BJeLR fibroblasts, dose response, cell-based, alamar blue fluorescence, cherrypicked samples (AID 2631).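 Also: confirmatory dose-response assay in RAS-dependent BJ fibroblasts engineered with TERT, LT and ST, with cytotoxicity read by fluorescence.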 Format: functional. The following applies: Homo sapiens.
Assay [7] concerns the target Luciferin 4-monooxygenase (Photinus pyralis, UniProt P08659). Nature of the assay: firefly luciferase enzyme inhibitors, dose response, biochemical, luminescence (AID 1891).
Assay [8] in a line: Luminescence Cell-Based Dose Confirmation HTS to Identify Inhibitors of Platelet Dense Granule Release. [Related pubchem assays: 1663 (Primary HTS), 1678 (Summary of Project)]. Format: functional.
Assay [9] in a line: NIH-3T3 fibroblast cytotoxicity, dose response, cytotoxicity control, cell-based, fluorescence, Alamar Blue, secondary assay (AID 2327).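 Also: NIH-3T3 mouse fibroblasts cultured with fluconazole at 8 µg/mL.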 Format: functional.
Assay [10] in a line: C. albicans growth with fluconazole, confirmation, fluorescence, retest (AID 2467). Format: functional, cell-based.
In assay [11] the target is T2, Serine/threonine-protein phosphatase (Candida dubliniensis (strain CD36 / CBS 7987 / NCPF 3949 / NRRLY-17841) (Yeast), UniProt B9W6M3).
T2 sequence (B9W6M3 whole entry): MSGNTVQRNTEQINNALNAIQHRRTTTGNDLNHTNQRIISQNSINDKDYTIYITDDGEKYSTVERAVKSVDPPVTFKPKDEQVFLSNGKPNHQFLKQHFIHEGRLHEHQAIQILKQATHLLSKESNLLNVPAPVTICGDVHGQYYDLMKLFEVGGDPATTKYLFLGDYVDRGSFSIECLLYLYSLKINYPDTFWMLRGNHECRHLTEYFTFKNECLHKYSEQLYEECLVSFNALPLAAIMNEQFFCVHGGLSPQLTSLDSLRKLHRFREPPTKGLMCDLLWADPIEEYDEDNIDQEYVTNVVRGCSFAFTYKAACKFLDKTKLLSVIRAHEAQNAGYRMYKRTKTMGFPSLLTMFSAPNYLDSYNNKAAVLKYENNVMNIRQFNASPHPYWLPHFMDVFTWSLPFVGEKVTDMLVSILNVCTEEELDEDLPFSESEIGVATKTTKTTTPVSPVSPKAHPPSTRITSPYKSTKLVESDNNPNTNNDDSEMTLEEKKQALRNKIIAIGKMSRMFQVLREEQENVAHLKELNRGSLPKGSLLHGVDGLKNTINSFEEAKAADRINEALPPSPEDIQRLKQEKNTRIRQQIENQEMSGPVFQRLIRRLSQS
Nature of the assay: calcineurin pathway inhibitors in yeast reporter, dose response, S. cerevisiae, CDRE-lacZ, luminescence, secondary (AID 2388).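 Also: yeast reporter cells carrying a calcineurin-responsive lacZ construct stimulated with calcium chloride; luminescent beta-galactosidase reporter signal in whole cells rather than isolated phosphatase activity; potency for inhibition where a drop in reporter signal means calcineurin blockade.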 In kind it is functional, cell-based.

Assay [12] addresses ATP-dependent molecular chaperone HSP82 (Candida albicans (strain WO-1) (Yeast), UniProt C4YTQ8). Nature of the assay: loss of DOC-induced GRE-beta-galactosidase reporter signal, dose response, Hsp90 inhibitor project, S. cerevisiae, luminescence (AID 2400).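 Also: beta-galactosidase luminescence from glucocorticoid response element reporter as proxy for Hsp90 function; inhibitor potency where signal loss means Hsp90 inhibition.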 Format: functional, cell-based.
Assay [13] has as its target T3, Apoptotic protease-activating factor 1 (Homo sapiens, UniProt O14727).
T3 sequence (O14727 whole entry): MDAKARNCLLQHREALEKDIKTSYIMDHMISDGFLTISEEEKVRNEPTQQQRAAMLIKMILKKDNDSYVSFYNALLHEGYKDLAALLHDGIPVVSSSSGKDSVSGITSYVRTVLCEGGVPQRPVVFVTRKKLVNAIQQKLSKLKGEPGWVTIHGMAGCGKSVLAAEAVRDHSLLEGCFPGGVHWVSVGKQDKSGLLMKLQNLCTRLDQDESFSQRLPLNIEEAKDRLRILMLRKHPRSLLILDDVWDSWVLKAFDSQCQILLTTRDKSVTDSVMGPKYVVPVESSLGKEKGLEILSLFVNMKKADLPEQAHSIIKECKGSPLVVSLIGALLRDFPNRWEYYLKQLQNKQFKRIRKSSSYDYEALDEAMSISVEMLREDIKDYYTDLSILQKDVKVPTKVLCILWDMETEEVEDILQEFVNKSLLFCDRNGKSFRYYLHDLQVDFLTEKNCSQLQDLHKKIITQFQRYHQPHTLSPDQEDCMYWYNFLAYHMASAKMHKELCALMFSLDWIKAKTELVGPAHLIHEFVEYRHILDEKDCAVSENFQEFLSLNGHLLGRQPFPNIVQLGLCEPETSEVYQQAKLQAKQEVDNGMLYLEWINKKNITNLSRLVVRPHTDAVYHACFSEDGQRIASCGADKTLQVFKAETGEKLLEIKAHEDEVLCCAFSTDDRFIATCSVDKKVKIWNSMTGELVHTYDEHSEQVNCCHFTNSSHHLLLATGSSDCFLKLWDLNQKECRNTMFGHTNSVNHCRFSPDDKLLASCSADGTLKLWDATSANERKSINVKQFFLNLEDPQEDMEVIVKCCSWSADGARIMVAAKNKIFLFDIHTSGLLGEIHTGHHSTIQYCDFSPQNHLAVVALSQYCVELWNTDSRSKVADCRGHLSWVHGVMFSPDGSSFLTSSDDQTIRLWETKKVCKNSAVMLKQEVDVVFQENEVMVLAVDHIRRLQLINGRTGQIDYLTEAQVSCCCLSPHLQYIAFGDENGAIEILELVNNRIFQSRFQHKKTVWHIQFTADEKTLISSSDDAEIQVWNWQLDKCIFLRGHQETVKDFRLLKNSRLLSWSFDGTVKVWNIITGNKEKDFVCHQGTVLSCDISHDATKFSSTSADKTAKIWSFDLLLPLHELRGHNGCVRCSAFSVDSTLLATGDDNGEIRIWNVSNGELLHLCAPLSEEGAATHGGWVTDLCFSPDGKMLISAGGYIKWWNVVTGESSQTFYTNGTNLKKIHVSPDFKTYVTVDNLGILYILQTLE
Format: functional.

Assay [14] relates to Vero. Nature of the assay: Vero cell cytotoxicity, cytotoxicity control for flavivirus capping enzyme inhibitors (AID 588742). To be noted: Chlorocebus sabaeus. Format: functional.
The target in another assay is Genome polyprotein (dengue virus type 2, UniProt P29990). The assay is described as follows: Dengue-2 NS5 methyltransferase inhibitors, primary screen, biochemical, confirmation dose response (AID 588689). In kind it is functional.
Sequence of Genome polyprotein (P29990 2492-3391 limits assumed): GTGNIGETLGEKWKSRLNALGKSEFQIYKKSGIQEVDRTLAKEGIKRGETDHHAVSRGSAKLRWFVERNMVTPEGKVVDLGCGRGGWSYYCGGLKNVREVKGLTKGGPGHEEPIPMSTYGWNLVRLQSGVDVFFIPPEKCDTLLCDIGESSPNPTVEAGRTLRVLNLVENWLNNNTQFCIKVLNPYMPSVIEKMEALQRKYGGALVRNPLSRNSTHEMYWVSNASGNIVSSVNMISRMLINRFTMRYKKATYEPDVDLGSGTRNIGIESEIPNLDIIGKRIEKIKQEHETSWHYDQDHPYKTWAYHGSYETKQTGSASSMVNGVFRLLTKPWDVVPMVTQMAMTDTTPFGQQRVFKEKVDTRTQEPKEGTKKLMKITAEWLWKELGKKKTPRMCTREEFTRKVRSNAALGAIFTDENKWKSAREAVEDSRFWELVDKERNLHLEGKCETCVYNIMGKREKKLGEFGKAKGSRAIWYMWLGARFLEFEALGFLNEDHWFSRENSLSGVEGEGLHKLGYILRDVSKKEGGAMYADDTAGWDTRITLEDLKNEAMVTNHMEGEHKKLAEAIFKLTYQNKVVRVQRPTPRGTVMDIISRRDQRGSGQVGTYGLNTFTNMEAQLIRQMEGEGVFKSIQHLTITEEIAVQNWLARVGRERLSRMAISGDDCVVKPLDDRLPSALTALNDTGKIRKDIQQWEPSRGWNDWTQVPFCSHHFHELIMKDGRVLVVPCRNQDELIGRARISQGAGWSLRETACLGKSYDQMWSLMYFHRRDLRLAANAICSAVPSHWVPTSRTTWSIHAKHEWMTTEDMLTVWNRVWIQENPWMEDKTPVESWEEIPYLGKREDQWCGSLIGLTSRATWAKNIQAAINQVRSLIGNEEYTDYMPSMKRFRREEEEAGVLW
A short description of assay [15]: THP-1 cell cytotoxicity, dose response, cytotoxicity control for Vif-APOBEC3G degradation inhibitor project, THP-1 cells (AID 1117359). Format: functional. The following applies: Human immunodeficiency virus 1, THP-1.
Assay [16] concerns Vero. Nature of the assay: cells. In kind it is functional. The following applies: Chlorocebus sabaeus.

SMILES strings stand for the structures. Counter-ions that a name gives are not always drawn. Activity calls are given as the source filed them. Rule as the data show it, for most assays here: actives have a measured EC50 and inactives only a lower limit. Where only a bound is given, the exact number is not on record here.

Sequence of ATP-dependent molecular chaperone HSP82 (C4YTQ8 whole entry): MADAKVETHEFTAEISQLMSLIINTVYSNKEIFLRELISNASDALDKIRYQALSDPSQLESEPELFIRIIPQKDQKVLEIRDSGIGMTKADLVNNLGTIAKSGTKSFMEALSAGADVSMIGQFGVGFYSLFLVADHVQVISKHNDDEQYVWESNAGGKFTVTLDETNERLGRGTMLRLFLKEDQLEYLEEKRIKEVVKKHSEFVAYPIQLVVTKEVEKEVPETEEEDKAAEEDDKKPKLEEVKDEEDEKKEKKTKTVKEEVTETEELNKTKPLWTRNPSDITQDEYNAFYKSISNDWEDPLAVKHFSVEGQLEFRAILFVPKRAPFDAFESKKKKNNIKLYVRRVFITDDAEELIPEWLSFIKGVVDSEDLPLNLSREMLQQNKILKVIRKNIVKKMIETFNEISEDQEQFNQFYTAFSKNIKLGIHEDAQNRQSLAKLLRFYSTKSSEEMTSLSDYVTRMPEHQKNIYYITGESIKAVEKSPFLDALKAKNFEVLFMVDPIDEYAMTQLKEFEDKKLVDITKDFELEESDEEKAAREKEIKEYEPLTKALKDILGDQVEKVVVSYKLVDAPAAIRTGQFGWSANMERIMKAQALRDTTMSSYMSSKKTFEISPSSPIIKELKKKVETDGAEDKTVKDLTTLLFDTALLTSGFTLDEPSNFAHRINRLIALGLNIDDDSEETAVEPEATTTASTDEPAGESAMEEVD
Sequence of Luciferin 4-monooxygenase (P08659 whole entry): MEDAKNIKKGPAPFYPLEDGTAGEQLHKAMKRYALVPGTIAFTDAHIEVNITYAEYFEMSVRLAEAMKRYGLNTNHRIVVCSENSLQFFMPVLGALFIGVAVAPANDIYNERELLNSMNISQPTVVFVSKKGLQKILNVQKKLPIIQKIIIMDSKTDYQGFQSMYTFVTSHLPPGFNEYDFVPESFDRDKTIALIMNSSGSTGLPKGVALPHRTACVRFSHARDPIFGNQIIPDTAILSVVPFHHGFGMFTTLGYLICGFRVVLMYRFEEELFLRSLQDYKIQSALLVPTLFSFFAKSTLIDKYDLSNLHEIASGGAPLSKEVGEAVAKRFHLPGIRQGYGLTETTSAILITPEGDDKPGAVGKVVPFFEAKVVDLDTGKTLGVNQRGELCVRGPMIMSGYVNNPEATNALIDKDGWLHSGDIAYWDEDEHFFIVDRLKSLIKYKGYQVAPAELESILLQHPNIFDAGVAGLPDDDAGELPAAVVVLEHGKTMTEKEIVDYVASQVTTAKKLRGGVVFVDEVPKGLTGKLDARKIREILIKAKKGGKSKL

Consider `CCOc1cccc(C(=O)NC2=NCCS2)c1`, for which the IC50 (in the assay with HEK293; in assay [1]) was > 67.5 µM (inactive) each time.
Take `Cc1cccc(OCC(=O)Nc2ccc(C(=O)NCc3cccnc3)cc2)c1`: the EC50 was > 150 µM (not active) with BJ [2]; 8.97 µM (inconclusive) in the assay on BJ [3]; > 150 µM (inconclusive) with BJ [4]; > 150 µM (not active) in assay [5]; 17.3 µM (active) in the assay on BJ [6].
With `CN(C)/C=C(/C(=O)c1ccc(Cl)c(Cl)c1)c1nnnn1-c1ccccc1`, the IC50 (with HEK293; in assay [1]) was > 67.5 µM (inactive) each time.
Consider `CCSc1nnc(NC(=O)C2CC2c2ccccc2)s1` (configuration not stated), for which the EC50 in assay [7] and in assay [8] was > 112 µM (not active) in each case. In addition, the IC50 (in the assay with HEK293; in assay [1]) was > 67.5 µM (inactive) in each case.
In the case of `CC(C)(C)c1ccc(Cc2nnc(S)nc2O)cc1`, the EC50 in assay [9] is > 160 µM (inactive); in [10], 368 nM (active); in assay [11], 20.2 µM (active); in assay [12], 9.48 µM (active).
For `Cc1nn2c(-c3ccncc3)nnc2c2ccccc12`, the IC50 in [13] is 5.15 µM (active).
With `Cc1cc(C)c2c(N)c(C(=O)Nc3ccc(C)c(C)c3)sc2n1`, the IC50 (in the assay on HEK293; in [1]) was > 67.6 µM (inactive) in each case.
Take `O=C(/C(=N/N=C/c1ccc(O)c(O)c1O)c1ccccc1)c1ccccc1`: the EC50 in assay [9] is > 150 µM (inactive); in assay [10] it was 4040 nM (active); in [11], > 180 µM (inactive); in [12], 5.97 µM (active). Further, the CC50 was 9.15 µM (active) in the assay on Vero [14] and 16.6 µM (active) in [15]. In addition, at Genome polyprotein, the IC50 was 50.1 µM (active).
Take `CC1=C(CC[C@@H](C)CO)O[C@H]2C[C@H]3[C@@H]4CC[C@H]5C[C@@H](O)CC[C@]5(C)[C@H]4CC(=O)[C@]3(C)[C@@H]12`: the EC50 in assay [9] is > 150 µM (inactive); in [10], 383 nM (active); in assay [11] it was > 180 µM (inactive); in assay [12], > 150 µM (inactive).
Regarding `COc1cc2nc(N3CCN(C(=O)c4ccco4)CC3)nc(N)c2cc1OC` [PRAZOSIN HYDROCHLORIDE], the CC50 in the assay on Vero [16] is 16.9 µM (active).
